From US20250019385A1, “SPIROCYCLIC ANNULATED 2-AMINO-3-CYANO THIOPHENES AND DERIVATIVES FOR THE TREATMENT OF CANCER” (Boehringer Ingelheim International GmbH, priority 2023, published 2025)
pIC50: −log10 of the molar value.

What was measured:
[1] = target: KRAS (G12D)::CRAF protein::protein interaction (Homo sapiens (Human), UniProt P01116, G12D); test: KRAS TR-FRET assay (KRAS G12D::CRAF, GTP); assay type: binding
Experimental: (§1) This assay measures the inhibitory effect of compounds on KRAS::CRAF protein::protein interactions in the presence of GTP using Time-resolved fluorescence energy transfer (TR-FRET).
(§2) The following wildtype or mutant alleles of KRAS and CRAF protein have been used at the given concentrations:
KRAS (G12D) 1-169, N-terminal 6His-tag, C-terminal avi-tag (Xtal BioStructures, Inc.); final assay concentration 15 nM,
(§3) CRAF Ras binding domain, GST-tag, TEV cleavage site (Boehringer Ingelheim in house protein prep); final assay concentration 15 nM.
(§4) Test compounds dissolved in DMSO were dispensed onto assay plates (Proxiplate 384 PLUS, white, PerkinElmer; 6008289) using an Access Labcyte Workstation with the Labcyte Echo 55x. For the chosen highest assay concentration of 100 μM, 150 nl of compound solution was transferred from a 10 mM DMSO compound stock solution. A series of eleven fivefold dilutions per compound was transferred to the assay plate, compound dilutions were tested in duplicates. DMSO was added as backfill to a total volume of 150 nl.
(§5) The assay runs on a fully automated robotic system. To 150 nl of compound dilution 15 μl of a mix including the respective KRAS allele, CRAF (e.g. KRAS (G12D)::CRAF; final assay concentrations see above), GTP nucleotide (Sigma G8877; final assay concentration 10 μM), Lance Eu—W1024 labeled Streptavidin (PerkinElmer, Cat No AD0063; final assay concentration 1.5 nM) and Anti-GST surelight APC (PerkinElmer, Cat No AD0059G; final assay concentration 30 nM) in assay buffer (1×PBS, 0.1% BSA, 0.05% Tween 20) are added into columns 1-23 and 15 μL of the solution without the respective KRAS allele were added to row 24.
(§6) Plates are kept at room temperature in a darkened incubator. After 60 minutes incubation time the signal is measured in a PerkinElmer Envision HTS Multilabel Reader using the TR-FRET LANCE Ultra specs from PerkinElmer.
(§7) Each plate contains 16 wells of a negative control (diluted DMSO instead of test compound; w respective KRAS allele; column 23) and 16 wells of a positive control (diluted DMSO instead of test compound; w/o respective KRAS allele; column 24).
(§8) IC50 values were calculated and analyzed with Boehringer Ingelheim's MEGALAB 50 application using a 4 parametric logistic model.
(§9) Tables of example compounds disclosed herein contain IC50 values determined using the above assays (see Table 44).

[2] = target: KRAS (G12V)::CRAF protein::protein interaction (Homo sapiens (Human), UniProt P01116, C118S/G12V); test: KRAS TR-FRET assay (KRAS G12V::CRAF, GTP); assay type: binding
Experimental: as §1, §2
KRAS (G12V) 1-169, C118S, N-terminal 6His-tag, C-terminal avi-tag (Boehringer Ingelheim in house protein prep); final assay concentration 15 nM.
as §3, §4, §5, §6, §7, §8, §9

[3] = target: KRAS (WT)::CRAF protein::protein interaction (Homo sapiens (Human), UniProt P01116); test: KRAS TR-FRET assay (KRAS WT::CRAF, GTP); assay type: binding
Experimental: as §1, §2
KRAS (WT) 1-169, N-terminal 6His-tag, C-terminal avi-tag (Boehringer Ingelheim in house protein prep); final assay concentration 15 nM.
as §3, §4, §5, §6, §7, §8, §9

[4] = Caco-2 assay (permeability and efflux ratio); assay type: in vitro ADME; settings: human; for Papp A→B at 90 min, 10 μM: Caco-2 apical to basolateral permeability, pH 7.4, read-out: Caco PappAB; for efflux ratio at 90 min, 10 μM: pH 7.4, Caco-2 efflux ratio PappBA/PappAB, read-out: Caco ER
Experimental: The assay provides information on the potential of a compound to pass the cell membrane, on the extent of oral absorption as well as on whether the compound is actively transported by uptake and/or efflux transporters. Permeability measurements across polarized, confluent Caco-2 cell monolayers grown on permeable filter supports (Corning, catalog #3391) are used. 10 μM test compound solution in assay buffer (128.13 mM NaCl, 5.36 mM KCl, 1 mM MgSO4, 1.8 mM CaCl2), 4.17 mM NaHCO3, 1.19 mM Na2HPO4, 0.41 mM NaH2PO4, 15 mM 2-[4-(2-hydroxyethyl)piperazin-1-yl]ethanesulfonic acid (HEPES), 20 mM glucose, pH 7.4) was added to the donor compartment of the cell chamber containing a monolayer of Caco-2 cells in between the donor and the receiver compartment. The receiver and donor compartments contain 0.25% bovine serum albumine (BSA) in assay buffer. Passive diffusion and/or active transport of compounds across the monolayer is measured in both apical to basolateral (a-b) and basolateral to apical (b-a) direction. a-b permeability (PappAB) represents drug absorption from the intestine into the blood and b-a permeability (PappBA) drug secretion from the blood back into the intestine via both passive permeability as well as active transport mechanisms mediated by efflux and uptake transporters that are expressed on the Caco-2 cells. After a pre-incubation of 25-30 min at 37° C., at predefined time points (0, 30, 60 and 90 min), samples were taken from the receiver and donor compartment, respectively. Concentrations of test compounds in samples were measured by HPLC/MS/MS, samples from the donor compartment were diluted 1:50 (v:v) with assay buffer, samples from receiver compartment were measured without dilution.
Apparent permeabilities in a-b (PappAB) and b-a (PappBA) directions are calculated according to the formula:
[formula] • Vrec [mL]: buffer volume in receiver compartment • Cdon [μmol/mL]: concentration of test compound in donor compartment at t=0 • ΔCrec: difference between concentrations of test compound in receiver compartment at start and end of incubation time • Δt: Incubation time • Vrec·ΔCrec/Δt [μmol/min]: Amount of compound transferred to receiver compartment per time • A [cm^2]: filter surface
Caco-2 efflux ratios (ER) are calculated as the ratio of PappBA/PappAB.

KRAS (G12D)::CRAF protein::protein interaction, sequence (P01116 other isoform, or with tags, fused parts or gaps G12D): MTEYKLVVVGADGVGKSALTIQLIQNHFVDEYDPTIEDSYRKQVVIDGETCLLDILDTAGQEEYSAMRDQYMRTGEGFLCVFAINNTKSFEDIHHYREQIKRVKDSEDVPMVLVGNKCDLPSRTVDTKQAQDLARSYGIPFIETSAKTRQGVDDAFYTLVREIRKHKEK
KRAS (WT)::CRAF protein::protein interaction, sequence (P01116 other isoform, or with tags, fused parts or gaps): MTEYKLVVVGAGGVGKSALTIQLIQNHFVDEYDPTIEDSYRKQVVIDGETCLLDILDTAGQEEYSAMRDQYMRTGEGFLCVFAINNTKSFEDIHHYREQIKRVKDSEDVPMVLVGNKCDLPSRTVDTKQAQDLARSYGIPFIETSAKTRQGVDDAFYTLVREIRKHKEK
KRAS (G12V)::CRAF protein::protein interaction, sequence (P01116 other isoform, or with tags, fused parts or gaps G12V/C118S): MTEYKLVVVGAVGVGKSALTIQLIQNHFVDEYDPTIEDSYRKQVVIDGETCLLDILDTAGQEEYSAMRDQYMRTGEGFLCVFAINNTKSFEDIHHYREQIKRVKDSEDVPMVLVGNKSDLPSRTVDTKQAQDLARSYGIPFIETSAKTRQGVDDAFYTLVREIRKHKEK

| SMILES | pIC50 [1] | pIC50 [2] | pIC50 [3] | Papp A→B at 90 min, 10 μM [4] | efflux ratio at 90 min, 10 μM [4] |
| --- | --- | --- | --- | --- | --- |
| CO[C@H]1C[C@@H]([C@H](C)Oc2nc(-c3onc4c3CCC[C@@]43CCCc4sc(N)c(C#N)c43)nc3c2n(C)c(=O)n3[C@@H]2CCOC2)N(C)C1 [I-2] | 6.40 | 6.74 | 6.37 | – | – |
| Cc1cc2c(O[C@@H](C)[C@@H]3CCCN3C)nc(-c3onc4c3CCC[C@@]43CCCc4sc(N)c(C#N)c43)nc2n1[C@@H]1CCOC1 [I-40] | 6.74 | 6.92 | 6.63 | – | – |
| C[C@H](Oc1nc(-c2onc3c2CCC[C@@]32CCCc3sc(N)c(C#N)c32)nc2c1n(C)c(=O)n2[C@@H]1CCOC1)[C@@H]1C[C@@H](F)CN1C [I-22] | 6.86 | 7.22 | 6.88 | – | – |
| C[C@H](Oc1nc(-c2onc3c2CCC[C@@]32CCCc3sc(N)c(C#N)c32)nc2c1CN(C1COC1)C[C@]21CCOC1)[C@@H]1CC[C@H](C)N1C [I-55] | – | – | – | 240 nm/s | 2.3 |
| C[C@H](Oc1nc(-c2noc3c2CCC[C@@]32CCCc3sc(N)c(C#N)c32)nc2c1CN(C1COC1)C[C@]21CCOC1)[C@@H]1CCCN1C [II-12] | – | – | – | 29 nm/s | 21.6 |
| C[C@H](Oc1nc(-c2noc3c2CCC[C@@]32SCCc3sc(N)c(C#N)c32)nc2c1COC[C@]21CCOC1)[C@@H]1CCCN1C [II-16] | – | – | – | 120 nm/s | 3.8 |
| CO[C@@H]1C[C@@H]([C@H](C)Oc2nc(-c3onc4c3CCC[C@@]43CCCc4sc(N)c(C#N)c43)nc3c2n(C)c(=O)n3[C@@]23COC[C@@H]2C3)N(C)C1 [I-46] | – | – | – | 210 nm/s | 1.8 |
| C[C@@H]1COC[C@H](n2c(=O)n(C)c3c(O[C@@H](C)[C@@H]4CCCN4C)nc(-c4onc5c4CCC[C@@]54CCCc5sc(N)c(C#N)c54)nc32)C1 [I-44] | – | – | – | 140 nm/s | 2.5 |
| C[C@H](Oc1nc(-c2noc3c2CCC[C@@]32CCCc3sc(N)c(C#N)c32)nc2c1n(C)c(=O)n2[C@H]1CO[C@@H](C)C1)[C@@H]1CCCN1C [II-5] | – | – | – | 87 nm/s | 5.9 |
| CO[C@@H]1C[C@@H]([C@H](C)Oc2nc(-c3onc4c3CCC[C@@]43CCCc4sc(N)c(C#N)c43)nc3c2n(C)c(=O)n3[C@H]2COC[C@@H](C)C2)N(C)C1 [I-52] | – | – | – | 340 nm/s | 0.6 |
| CO[C@H]1CCN(C)[C@@H]1[C@H](C)Oc1nc(-c2noc3c2CCC[C@@]32CCCc3sc(N)c(C#N)c32)nc2c1CN(C1COC1)C[C@]21CCOC1 [II-13] | – | – | – | 180 nm/s | 2.9 |
| CO[C@H]1CCN(C)[C@@H]1[C@H](C)Oc1nc(-c2onc3c2CCC[C@@]32CCCc3sc(N)c(C#N)c32)nc2c1n(C)c(=O)n2[C@H]1COC[C@@H](C)C1 [I-51] | – | – | – | 360 nm/s | 0.5 |
| C[C@H](Oc1nc(-c2onc3c2CCC[C@@]32CCCc3sc(N)c(C#N)c32)nc2c1n(C)c(=O)n2[C@@]12COC[C@@H]1C2)[C@@H]1CC[C@H](C)N1C [I-45] | – | – | – | 430 nm/s | 0.6 |
| CO[C@@H]1C[C@@H]([C@H](C)Oc2nc(-c3noc4c3CCC[C@@]43CCCc4sc(N)c(C#N)c43)nc3c2CN(C2COC2)C[C@]32CCOC2)N(C)C1 [II-14] | – | – | – | 32 nm/s | 15.3 |
